Source: ChEMBL document CHEMBL1121775, “Synthesis and antimalarial effects of N2-aryl-N4-[(dialkylamino)alkyl]- and N4-aryl-N2-[(dialkylamino)alkyl]-2,4-quinazolinediamines” (J Med Chem, 1981)
Several values for one entry are separate records, joined by “and”; a condition that tells them apart may be missing. Equal entries are not always repeated.

Assays:
Plasmodium berghei [1] = assay: Antimalarial effect against trophozoite-induced Plasmodium berghei in mice (Mus musculus) at 320 mg/kg subcutaneous dose; type: functional
Mus musculus [2] = assay: Number of mice cured at a dose of 640 mg/kg sc; type: functional; conditions: route subcutaneous
Plasmodium berghei [3] = assay: Antimalarial effect against trophozoite-induced Plasmodium berghei in mice (Mus musculus) after 40 mg/kg subcutaneous dose; type: functional
Mus musculus [4] = assay: Number of mice cured at a subcutaneous dose of 160 mg/kg.; type: functional
Plasmodium berghei [5] = assay: Antimalarial effect against trophozoite-induced Plasmodium berghei in mice (Mus musculus) at 80 mg/kg subcutaneous dose; type: functional
Plasmodium berghei [6] = assay: Antimalarial effect against trophozoite-induced Plasmodium berghei in mice (Mus musculus) after 20 mg/kg subcutaneous dose; type: functional
Plasmodium berghei [7] = assay: Antimalarial activity against trophozoite-induced Plasmodium berghei in mice (Mus musculus) at 160 mg/kg subcutaneous dose; type: functional
[8] = The ratio of SD90 of the quinine hydrochloride, to the SD90 of the test substance for the Dose of 20 mg/kg; type: functional
Plasmodium berghei [9] = assay: Antimalarial activity against trophozoite-induced Plasmodium berghei in mice (Mus musculus); type: functional
Mus musculus [10] = assay: Number of mice cured at a subcutaneous dose of 320 mg/kg.; type: functional
Mus musculus [11] = assay: Number of toxic deaths at a dose of 640 mg/kg; type: toxicity, organism-based; set-up: dose 640 mg/kg; conditions: in vivo
Mus musculus [12] = assay: No of toxic deaths at dose of 640 mg/kg; type: ADME, organism-based; set-up: dose 640 mg/kg; conditions: in vivo
Plasmodium berghei [13] = assay: Antimalarial effect against trophozoite-induced Plasmodium berghei in mice (Mus musculus) at 160 mg/kg subcutaneous dose; type: functional
Plasmodium berghei [14] = assay: (§1) Antimalarial effect against trophozoite-induced Plasmodium berghei in mice (Mus musculus) at 640 mg/kg subcutaneous dose; type: functional
Mus musculus [15] = assay: Number of mice cured at a subcutaneous dose of 640 mg/kg.; type: functional
[16] = The ratio of SD90 of the quinine hydrochloride, to the SD90 of the test substance for the Dose of 2.2 mg/kg; type: functional
[17] = The ratio of SD90 of the quinine hydrochloride, to the SD90 of the test substance for the Dose of 69 mg/kg; type: functional
Mus musculus [18] = assay: Antimalarial effect against trophozoite-induced Plasmodium berghei in mice (Mus musculus) at dosage of 160 mg/kg after subcutaneous administration; No. of mice (Mus musculus) surviving after 60 days 3; type: functional
[19] = The ratio of SD90 of the quinine hydrochloride, to the SD90 of the test substance for the Dose of 8.5 mg/kg; type: functional
Mus musculus [20] = assay: Antimalarial effect against trophozoite-induced Plasmodium berghei in mice (Mus musculus) at dosage of 320 mg/kg after subcutaneous administration; No. of mice (Mus musculus) surviving after 60 days 4; type: functional
Mus musculus [21] = assay: Number of mice cured at a dose of 320 mg/kg sc; type: functional; conditions: route subcutaneous
[22] = The ratio of SD90 of the quinine hydrochloride, to the SD90 of the test substance for the Dose of […] mg/kg; type: functional
[23] = The ratio of SD90 of the quinine hydrochloride, to the SD90 of the test substance for the Dose of 70 mg/kg; type: functional
Plasmodium berghei [24] = assay: as §1; type: functional; conditions: 640 mg/kg
Mus musculus [25] = assay: Antimalarial effect against trophozoite induced Plasmodium berghei in mice (Mus musculus) at dosage of 160 mg/kg after subcutaneous administration; No. of mice (Mus musculus) surviving after 60 days 1; type: functional
Mus musculus [26] = assay: Antimalarial effect against trophozoite-induced Plasmodium berghei in mice (Mus musculus) at dosage of 640 mg/kg after subcutaneous administration; No. of mice (Mus musculus) surviving after 60 days 4; type: functional
Mus musculus [27] = assay: Antimalarial effect against trophozoite-induced Plasmodium berghei in mice (Mus musculus) at dosage of 320 mg/kg after subcutaneous administration; No. of mice (Mus musculus) surviving after 60 days 2; type: functional
Mus musculus [28] = assay: Antimalarial effect against trophozoite induced Plasmodium berghei in mice (Mus musculus) at dosage of 320 mg/kg after subcutaneous administration; No. of mice (Mus musculus) surviving after 60 days 3; type: functional

Structure (SMILES)	MST (Plasmodium berghei [1])	No. of survivals (Mus musculus [2])	MST (Plasmodium berghei [3]; 40 mg/kg)	No. of survivals (Mus musculus [4])	MST (Plasmodium berghei [5])	MST (Plasmodium berghei [6])	SD90 (Plasmodium berghei [9])	No. of survivals (Mus musculus [10])	MST (Plasmodium berghei [13]; 160 mg/kg)	also measured
CN1CCCC1CCNc1nc(Nc2cc(Cl)cc(Cl)c2)nc2ccc(Cl)cc12 (centres undefined)	21.1 days	5	3.6 days and 4 days	1	5 days	0.6 days	20 mg/kg/day	1	–	MST (Plasmodium berghei [7]; 160 mg/kg): 11.1 days and 10.3 days; Ratio [8]: 3.8
CC1(C)N=C(N)N=C(N)N1c1ccc(Cl)cc1 [CYCLOGUANIL]	–	–	–	–	–	–	–	–	–	MST (Plasmodium berghei [3]): 13.4 days; MST (Plasmodium berghei [5]; 80 mg/kg): 21.6 days and 21.9 days; MST (Plasmodium berghei [6]; 20 mg/kg): 7.9 days and 8.1 days; No. of toxic deaths (Mus musculus [11]): 5; No. of toxic deaths (Mus musculus [12]): 5
CCN1CCCC(Nc2nc(Nc3ccc(Cl)c(Cl)c3)nc3ccccc23)C1 (centres undefined)	13.8 days	–	0.6 days and 0.5 days	–	1 days	0.4 days	2.2 mg/kg/day	–	6.2 days and 7.3 days	MST (Plasmodium berghei [14]; 640 mg/kg): 13.8 days and 24.2 days; No. of cured (Mus musculus [15]; 640 mg/kg): 3 and 2; Ratio [16]: 34
CCN(CC)CCNc1nc(Nc2ccc(Cl)c(Cl)c2)nc2ccc(NCc3ccc(Cl)c(Cl)c3)cc12	5.6 days	–	0.2 days and 0.4 days	–	0.4 days	0.2 days	69 mg/kg/day	–	–	MST (Plasmodium berghei [13]): 3.8 days; Ratio [17]: 1.1
CN(C)C1CCC(Nc2nc(Nc3ccc(Cl)c(Cl)c3)nc3ccccc23)CC1 (stereo in doubt; 23)	–	5	9.7 days and 9.9 days	–	–	–	8.5 mg/kg/day	–	–	MST (Mus musculus [18]): 25.4 days; Ratio [19]: 8.8; MST (Mus musculus [20]): 25.9 days; No. of survivals (Mus musculus [4]; 160 mg/kg): 3; MST (Plasmodium berghei [6]; 20 mg/kg): 0.9 days; MST (Plasmodium berghei [7]; 160 mg/kg): 27.4 days
CCN(CC)C1CCC(Nc2nc(Nc3cc(Br)cc(Br)c3)nc3ccccc23)CC1 (centres undefined)	26.2 days	–	1.1 days and 0.7 days	–	4.3 days	0.3 days	3.3 mg/kg/day	–	8.7 days and 9.1 days	No. of cured (Mus musculus [21]): 2; Ratio [22]: 2.3; No. of cured (Mus musculus [15]): 5
Clc1ccc(Nc2nc(NCCN3CCCC3)c3ccccc3n2)cc1Cl	9.3 days	–	2.1 days and 2.3 days	–	3.1 days	0.3 days	70 mg/kg/day	–	6.5 days and 7.1 days	Ratio [23]: 1.1; MST (Plasmodium berghei [24]): 15.9 days and 13.7 days
CCN(CC)C1CCC(Nc2nc(Nc3ccc(Cl)c(Cl)c3)nc3ccc(Cl)cc23)CC1 (centres undefined)	–	–	13.3 days and 12.9 days	1	14.9 days	1.3 days	–	2	–	No. of survivals (Mus musculus [2]; 640 mg/kg): 4 and 3; MST (Mus musculus [25]): 13.9 days; MST (Plasmodium berghei [7]): 12.9 days; MST (Plasmodium berghei [14]): 18.4 days; MST (Mus musculus [26]): 12.9 days; MST (Mus musculus [27]): 27.2 days
CCN1CCC(CNc2nc(Nc3ccc(C(F)(F)F)cc3)c3ccccc3n2)CC1	8.9 days	4	–	1	–	0.3 days	–	3	–	MST (Plasmodium berghei [3]): 0.5 days; MST (Plasmodium berghei [13]): 7.3 days; MST (Plasmodium berghei [5]; 80 mg/kg): 0.5 days and 0.7 days; MST (Mus musculus [28]): 9.4 days; MST (Plasmodium berghei [7]): 3.9 days; MST (Plasmodium berghei [14]): 21.9 days
